Results on 20 compounds are retold here after patent publication US10392367B2, “IRE1 small molecule inhibitors” (QUENTIS THERAPEUTICS, INC., priority 2017, dated 2019).

Experiment [1] has as its target T1, IRE1a (Homo sapiens, UniProt O75460). In words: IRE1a Endoribonuclease Nanoluciferase Assay (XBP1 luciferase reporter in 293 T cells). It is filed as cell-based. As to conditions: 293 T cells transfected with XBP1 luciferase reporter plasmid. How it is done:
Compounds disclosed herein were assessed for disruption of IRE1 signaling using a IRE1a Endoribonuclease Nanoluciferase Assay. Briefly, 2.5×10^6 293 T cells were seeded in a 10 cm^2 tissue culture plate. About 24 hours later, the cells were transfected with Effectene. In a 15 mL Tube, the following was added: 2 μg XBP1 luciferase reporter plasmid (PGK-Luc2-P2A-XBP1u-Nanoluciferase-PEST); 300 μl EC buffer; and 16 μl Enhancer, followed by incubation at room temp for 5 minutes. Next, 60 μl Effectene (Qiagen 301427) was added, followed by incubation at room temperature for 10 minutes. 2.6 mL cDMEM media was added. Old media was aspirated from the cells, followed by addition of 7 mL fresh media. Full transfection mixture was added dropwise to cells. Cells were incubated for 6 hours, followed by tripsinization, centrifugation and resuspension in 11 mL media. 100 uL of cells were plated per a well in a 96 well plate. A day later, stressors of choice+/− inhibitors were added. To harvest, media was aspirated from cells completely, then 50 uL 1× passive lysis buffer (Promega: E1941) was added per well and put on shaker (300 rpm) for 30 minutes at room temperature. Cells were centrifuged, and 15 uL sample per well was added to a new, opaque white 384 well plate (Corning 3570). 15 uL OneGlo (nanoluciferase kit, Promega N1630) was added. Plates were spun down, placed on shaker (300 rpm) for 10 minutes. Plates were read on luminometer, 1000 ms integration time per well. 15 uL Stop and Glo (nanoluciferase kit) was added. Plates were spun down, placed on shaker (300 rpm) for 10 minutes. Plates were read on luminometer, 1000 ms second integration time per well. Recordings are provided below in Table 4.
(A reporter such as luciferase makes a cellular process visible.)

The target in experiment [2] is T1, IRE1a. Put plainly: In vitro FRET assay (XBP1 RNA probe cleavage by IRE1a). It is filed as biochemical. Details: purchased SignalChem. As to conditions: SignalChem IRE1a protein 2 nM. As for the experimental part:
In vitro FRET assay was performed to evaluate the ability of select compounds to inhibit IRE1, the results of which are summarized in Table 3. To perform the in vitro FRET assay, 1× complete assay buffer (CAB; […] DTT, 50 mM sodium citrate pH 7.15, 1 mM magnesium acetate, 0.02% tween 20) was used to dilute SignalChem IRE1a protein to a final concentration of 2 nM. Selected compounds were serially diluted with DMSO in a non-binding black 384-well plate for a total of 15 ul in each well. 2 ul of the serially diluted compound or DMSO control were then added to new wells containing 98 ul of 1×CAB, for a total volume of 100 ul, 10 ul of which were then transferred to wells of a new plate. 5 ul of the diluted IRE1a was then added to each well. 5 ul of a […] XBP1 RNA probe was then added to each well. Fluorescence was then read over 30 minutes in kinetic mode (485/515 nm).
Two RNA probes were used, XBP1 wildtype (SEQ ID NO: 2) which is able to be spliced by active IRE1a or XBP1 mutant (SEQ ID NO: 3) which is unable to be spliced. Each probe contained a 5′ 6-FAM modification and a 3′ IOWA Black FQ modification.

T1 sequence (O75460 19-977): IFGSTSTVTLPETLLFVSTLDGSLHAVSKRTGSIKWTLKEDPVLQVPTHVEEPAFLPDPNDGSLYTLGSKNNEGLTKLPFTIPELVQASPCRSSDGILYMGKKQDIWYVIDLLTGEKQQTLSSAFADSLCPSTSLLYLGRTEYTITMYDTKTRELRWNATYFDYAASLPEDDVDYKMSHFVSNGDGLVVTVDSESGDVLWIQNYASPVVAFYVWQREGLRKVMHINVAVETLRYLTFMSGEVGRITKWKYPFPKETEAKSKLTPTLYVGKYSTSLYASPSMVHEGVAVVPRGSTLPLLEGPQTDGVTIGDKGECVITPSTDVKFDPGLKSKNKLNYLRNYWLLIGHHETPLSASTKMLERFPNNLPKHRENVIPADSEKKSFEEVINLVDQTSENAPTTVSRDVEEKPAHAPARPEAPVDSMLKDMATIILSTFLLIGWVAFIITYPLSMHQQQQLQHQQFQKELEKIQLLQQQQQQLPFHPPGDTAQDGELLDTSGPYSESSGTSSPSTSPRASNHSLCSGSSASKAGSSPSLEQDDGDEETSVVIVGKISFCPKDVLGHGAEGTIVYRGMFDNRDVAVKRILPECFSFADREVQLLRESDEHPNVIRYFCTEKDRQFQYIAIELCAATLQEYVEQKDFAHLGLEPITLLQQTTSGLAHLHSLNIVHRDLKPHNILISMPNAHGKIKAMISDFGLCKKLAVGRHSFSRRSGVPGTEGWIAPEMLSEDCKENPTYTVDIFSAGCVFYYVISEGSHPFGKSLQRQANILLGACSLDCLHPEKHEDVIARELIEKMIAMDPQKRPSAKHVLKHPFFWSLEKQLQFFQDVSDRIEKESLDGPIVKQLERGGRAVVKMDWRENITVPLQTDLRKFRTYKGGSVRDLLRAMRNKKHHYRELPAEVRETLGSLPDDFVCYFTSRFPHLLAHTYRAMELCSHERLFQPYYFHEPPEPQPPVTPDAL

Consider `Cn1nc(NC(=O)Cc2cccc(C(F)(F)F)c2)cc1-c1ccc2nc(N[C@H]3CC[C@H](N)CC3)ncc2c1` [Compound 1, N-(5-(2-(((1r,4r)-4-aminocyclohexyl)amino)quinazolin-6-yl)-1-methyl-1H-pyrazol-3-yl)-2-(3-(trifluoromethyl)phenyl)acetamide], for which the EC50 – broadly, the concentration at which the effect is half-maximal – on IRE1a [1] is greater than 100 nM. Also, the IC50 (commonly the concentration needed to halve the response being measured) at IRE1a [2] was in the range of 50 to 100 nM.
On the same counts, the results for `CCc1cc(-c2cc(NC(=O)Cc3cccc(C(F)(F)F)c3)nn2C)cc2cnc(N[C@H]3CC[C@H](N)CC3)nc12` [Compound 2, N-(5-(2-(((1r,4r)-4-aminocyclohexyl)amino)-8-ethylquinazolin-6-yl)-1-methyl-1H-pyrazol-3-yl)-2-(3-(trifluoromethyl)phenyl)acetamide] are 50 to 100 nM and no more than 5 nM.
The compound `CCc1cc(-c2cc(NC(=O)Cc3cccc(C(F)(F)F)c3)nn2C)cc2cnc(N[C@H]3CC[C@H](O)CC3)nc12` [Compound 3, N-(5-(8-ethyl-2-(((1r,4r)-4-hydroxycyclohexyl)amino)quinazolin-6-yl)-1-methyl-1H-pyrazol-3-yl)-2-(3-(trifluoromethyl)phenyl)acetamide] had an IC50 on IRE1a [2] greater than 100 nM.
On to `CCc1cc(-c2cc(NC(=O)Nc3ccc(OC4CCN(C)CC4)c(C(F)(F)F)c3)nn2C)cc2cnc(N[C@H]3CC[C@H](N)CC3)nc12` [Compound 4; Formic Acid, 1-(5-(2-(((1r,4r)-4-aminocyclohexyl)amino)-8-ethylquinazolin-6-yl)-1-methyl-1H-pyrazol-3-yl)-3-(4-((1-methylpiperidin-4-yl)oxy)-3-(trifluoromethyl)phenyl)urea], for which the EC50 at IRE1a [1] is no more than 5 nM. At IRE1a [2], this compound registered an IC50 of no more than 5 nM.
Compound `CCc1cc(-c2cc(NC(=O)Cc3cc(C(F)(F)F)cc(C(F)(F)F)c3)nn2C)cc2cnc(N[C@H]3CC[C@H](N)CC3)nc12` [Compound 5, N-(5-(2-(((1r,4r)-4-aminocyclohexyl)amino)-8-ethylquinazolin-6-yl)-1-methyl-1H-pyrazol-3-yl)-2-(3,5-bis(trifluoromethyl)phenyl)acetamide] yielded an IC50 at IRE1a [2] of 5 to 50 nM.
At IRE1a [1], `CCc1cc(-c2cc(NC(=O)Cc3ccc(C(F)(F)F)cc3)nn2C)cc2cnc(N[C@H]3CC[C@H](N)CC3)nc12` [Compound 6, N-(5-(2-(((1r,4r)-4-aminocyclohexyl)amino)-8-ethylquinazolin-6-yl)-1-methyl-1H-pyrazol-3-yl)-2-(4-(trifluoromethyl)phenyl)acetamide] came in with an EC50 greater than 100 nM. At IRE1a [2], this compound displayed a half-inhibitory concentration (IC50) of no more than 5 nM.
On the same counts, the results for `CCc1cc(-c2cc(NC(=O)Cc3ccc(C(F)(F)F)c(F)c3)nn2C)cc2cnc(N[C@H]3CC[C@H](N)CC3)nc12` [Compound 7, N-(5-(2-(((1r,4r)-4-aminocyclohexyl)amino)-8-ethylquinazolin-6-yl)-1-methyl-1H-pyrazol-3-yl)-2-(3-fluoro-4-(trifluoromethyl)phenyl)acetamide] are greater than 100 nM and no more than 5 nM.
The corresponding values for `CCc1cc(-c2cc(NC(=O)Cc3cccc(OC(F)(F)F)c3)nn2C)cc2cnc(N[C@H]3CC[C@H](N)CC3)nc12` [Compound 11, N-(5-(2-(((1r,4r)-4-aminocyclohexyl)amino)-8-ethylquinazolin-6-yl)-1-methyl-1H-pyrazol-3-yl)-2-(3-(trifluoromethoxy)phenyl)acetamide] are greater than 100 nM and 5 to 50 nM.
With `CCc1cc(-c2cc(NC(=O)Cc3cc(C(F)(F)F)ccc3C(F)(F)F)nn2C)cc2cnc(N[C@H]3CC[C@H](N)CC3)nc12` [Compound 12, N-(5-(2-(((1r,4r)-4-aminocyclohexyl)amino)-8-ethylquinazolin-6-yl)-1-methyl-1H-pyrazol-3-yl)-2-(2,5-bis(trifluoromethyl)phenyl)acetamide], the “Mean EC50” value on IRE1a [1] is listed as “A-B”. This compound also registered an IC50 on IRE1a [2] of no more than 5 nM.
For the compound `CCc1cc(-c2cc(NC(=O)[C@@H](O)c3ccccc3)nn2C)cc2cnc(N[C@H]3CC[C@H](N)CC3)nc12` [Compound 15, (S)-N-(5-(2-(((1r,4r)-4-aminocyclohexyl)amino)-8-ethylquinazolin-6-yl)-1-methyl-1H-pyrazol-3-yl)-2-hydroxy-2-phenylacetamide], the IC50 on IRE1a [2] lay in the range of 5 to 50 nM.
As to `CCc1cc(-c2cc(NC(=O)Cc3cccc(C#N)c3)nn2C)cc2cnc(N[C@H]3CC[C@H](N)CC3)nc12` [Compound 17, N-(5-(2-(((1r,4r)-4-aminocyclohexyl)amino)-8-ethylquinazolin-6-yl)-1-methyl-1H-pyrazol-3-yl)-2-(3-cyanophenyl)acetamide], the IC50 at IRE1a [2] was in the range of 5 to 50 nM.
Compound `CCc1cc(-c2cc(NC(=O)Cc3cc(F)cc(C(F)(F)F)c3)nn2C)cc2cnc(N[C@H]3CC[C@H](N)CC3)nc12` [Compound 20, N-(5-(2-(((1r,4r)-4-aminocyclohexyl)amino)-8-ethylquinazolin-6-yl)-1-methyl-1H-pyrazol-3-yl)-2-(3-fluoro-5-(trifluoromethyl)phenyl)acetamide] gave an IC50 on IRE1a [2] of 5 to 50 nM.
`CCc1cc(-c2cc(NC(=O)Nc3cc(C(F)(F)F)cc(C(F)(F)F)c3)nn2C)cc2cnc(N[C@H]3CC[C@H](N)CC3)nc12` [Compound 21, 1-(5-(2-(((1r,4r)-4-aminocyclohexyl)amino)-8-ethylquinazolin-6-yl)-1-methyl-1H-pyrazol-3-yl)-3-(3,5-bis(trifluoromethyl)phenyl)urea]: the IC50 on IRE1a [2] is 50 to 100 nM.
Still for that read-out and setting: under `CCc1cc(-c2cc(NC(=O)[C@H](N)c3ccccc3)nn2C)cc2cnc(N[C@H]3CC[C@H](N)CC3)nc12` [Compound 22, (R)-2-amino-N-(5-(2-(((1r,4r)-4-aminocyclohexyl)amino)-8-ethylquinazolin-6-yl)-1-methyl-1H-pyrazol-3-yl)-2-phenylacetamide] stands greater than 100 nM; under `CCc1cc(-c2cc(CC(=O)Nc3cccc(C(F)(F)F)c3)nn2C)cc2cnc(N[C@H]3CC[C@H](N)CC3)nc12` [Compound 23, 2-(5-(2-(((1r,4r)-4-aminocyclohexyl)amino)-8-ethylquinazolin-6-yl)-1-methyl-1H-pyrazol-3-yl)-N-(3-(trifluoromethyl)phenyl)acetamide], greater than 100 nM; under `CCc1cc(-c2cc(NC(=O)[C@@H](N)c3ccccc3)nn2C)cc2cnc(N[C@H]3CC[C@H](N)CC3)nc12` [Compound 24, (S)-2-amino-N-(5-(2-(((1r,4r)-4-aminocyclohexyl)amino)-8-ethylquinazolin-6-yl)-1-methyl-1H-pyrazol-3-yl)-2-phenylacetamide], greater than 100 nM.
In turn, `Cc1c(-c2cc(NC(=O)Cc3cc(C(F)(F)F)ccc3C(F)(F)F)nn2C)ccc2nc(N[C@H]3CC[C@H](N)CC3)ncc12` [Compound 45, N-(5-(2-(((1r,4r)-4-aminocyclohexyl)amino)-5-methylquinazolin-6-yl)-1-methyl-1H-pyrazol-3-yl)-2-(2,5-bis(trifluoromethyl)phenyl)acetamide] had a 50% inhibitory concentration (IC50) on IRE1a [2] greater than 100 nM.
Still for that read-out and setting: under `CCc1cc(-c2cc(NC(=O)Cc3cccc(C(F)(F)F)c3)nn2C)cc2cnc(N[C@H]3CC[C@H](N(C)CCOC)CC3)nc12` [Compound 46, N-(5-(8-ethyl-2-(((1r,4r)-4-((2-methoxyethyl)(methyl)amino)cyclohexyl)amino)quinazolin-6-yl)-1-methyl-1H-pyrazol-3-yl)-2-(3-(trifluoromethyl)phenyl)acetamide] stands greater than 100 nM; under `CCc1cc(-c2cc(NC(=O)Cc3cc(C(F)(F)F)ccc3C(F)(F)F)nn2C)cc2cnc(N[C@H]3CC[C@](C)(N)CC3)nc12` [Compound 49, N-(5-(2-(((1r,4r)-4-amino-4-methylcyclohexyl)amino)-8-ethylquinazolin-6-yl)-1-methyl-1H-pyrazol-3-yl)-2-(2,5-bis(trifluoromethyl)phenyl)acetamide], 50 to 100 nM.
Still for that read-out and setting: under `CCc1cc(-c2cc(NC(=O)Cc3cc(C(F)(F)F)ccc3C(F)(F)F)nn2C)cc2cnc(N[C@H]3CC[C@@](C)(N)CC3)nc12` [Compound 50, N-(5-(2-(((1s,4s)-4-amino-4-methylcyclohexyl)amino)-8-ethylquinazolin-6-yl)-1-methyl-1H-pyrazol-3-yl)-2-(2,5-bis(trifluoromethyl)phenyl)acetamide] stands 50 to 100 nM.
